In general, IC50 refers to the concentration needed to halve the response being measured.

Values joined by “and” are separate entries in the source; they are usually repeats but may differ in a detail not shown here. Identical values can stand only once. Like-named read-outs stand apart in the source and are kept apart here.

For assay [1], the system named is epitope-specific CD8+ PBMC of SIV-infected animals. It is filed as cell-based, rhesus macaque. The following applies: for avidity of CTL response: PBMC specific for late escaping epitopes; for EC50: read-out: ½maximal IFN-γ release (peptide concentration).
In assay [2] the test system is epitope-specific CTL lines. Put plainly: Intracellular IFN-γ staining (ICS) with peptide dilutions, in vitro CTL lines. As to conditions: for avidity of CTL response: CTL lines against acute escaped epitopes. It is filed as cell-based, rhesus macaque.
Assay [3] concerns rhesus MHC class I molecule Mamu-A*01. Put plainly: Mamu-A*01 peptide binding assay (inhibition of binding of a radiolabeled probe peptide). On the set-up: species or system rhesus macaque. The following applies: for % Binding reduction: (1.0-relative binding average)x100, versus index peptide STPESANL; for IC50: soluble Mamu-A*01; for Relative Binding Average: relative to the binding affinity of Tat28-35 STPESANL to Mamu-A*01. Here is the method:
Quantitative assays for the binding of peptides to soluble Mamu-A*01 molecules on the basis of the inhibition of binding of a radiolabeled standard probe peptide to detergent-solubilized MHC molecules were performed as previously described (Allen, T. M., et al., J. Immunol. 160:6062-6071, 1998). A position 1 C→A analog of the SIV gag 181-190 peptide ([…]) was utilized as the radiolabeled probe. In the case of competitive assays, the concentration of peptide yielding 50% inhibition of the binding of the radiolabeled probe peptide was calculated. Peptides were initially tested at one or two high doses. The IC50 of peptides yielding positive inhibition were then determined in subsequent experiments, in which two to six further dilutions were tested, as necessary. Since under the conditions to be utilized, where [label]<[MHC] and IC50 ≧[MHC], the measured IC50 values are reasonable approximations of the true Kd values. Each competitor peptide was tested in two to four completely independent experiments. As a positive control, in each experiment the unlabeled version of the radiolabeled probe was tested and its IC50 measured.

Assay [4] addresses rhesus MHC class I molecule Mamu-A*01 (rhesus macaque). Put plainly: competition with 125I-labeled […] for Mamu-A*01; (1.0-relative binding average)x100.
Assay [5] has the same target. The assay can be described thus: competition with 125I-labeled […] for Mamu-A*01; relative to […].
The subject of assay [6] is CTL lines stimulated with the SL8 index peptide. The assay can be described thus: CTL analyses of SL8-stimulated T-cell lines against index and variant peptides. As to conditions: E:T ratio 25:1, three peptide dilutions. It counts as cell-based, rhesus macaque. The protocol: FIG. 3 is a set of six graphs describing CTL analyses of CD8-positive T-lymphocyte cell lines stimulated with SL8 peptide. Cell lines were stimulated with the index peptide (SL8) and autologous B-LCL. After 2 weeks in culture, these T-cell lines were used in CTL analyses at an Effector:Target (E:T) ratio of 25:1 with the index peptide and the variants. Three different dilutions of peptides were tested.
CTL cultures were established from peripheral blood samples of SIV-infected rhesus macaques drawn in EDTA tubes and CTL were cultured and assayed as previously described (Evans, D. T., et al., supra, 1999).

Assay [7] deals with rhesus MHC class I molecule Mamu-A*01 (rhesus macaque).
Assay [8] has as its system Tat SL8- and Gag CM9-specific CTL lines. Put plainly: 51Cr-release cytotoxicity assay with peptide dilutions, in vitro CTL lines. As to conditions: CTL lines generated with high (1 μM) and low (1 nM) peptide; read-out: ½maximal specific lysis (peptide concentration). It counts as cell-based, rhesus macaque.
Setting [9] is: competition against 125-labeled peptide […].
[10] abbreviates: competition against 125-labeled peptide ATPYDINQML

Regarding ARRHRILDIYL [Nef_AL11], in assay [1] (ICS), the “avidity of CTL response” value is “low avidity”.

KRQQELLRL [Env_KL9]: the “avidity of CTL response” value in assay [1] (ICS) is recorded as “low avidity”.

Take YTSGPGIRY [YY9]: the “avidity of CTL response” value in assay [2] was “high avidity”.

On to “variant of the Tat STPESANL epitope with proline at P1 [P------]”, for which the “% Binding reduction” value is reported as 67% in assay [3], “more than 50%” in assay [3] (listed as proline at P1) and “more than 50%” in assay [3] (listed as proline substitution at P1). This substance returned a half-inhibitory concentration (IC50) in assay [3] (setting [9]) of 100 nM. Further, the “Relative Binding Average” value in assay [3] was determined as 0.43.

“Tat28-35 variant ------R (arginine at P8) (peptide)” showed a % Binding reduction in assay [4] greater than 99%. The same substance registered a Relative Binding Average in assay [5] of 0.003.

Regarding “variant of the Tat STPESANL epitope with leucine at P5 [----L--]”, the “% Binding reduction” value in assay [3] is recorded as 85%; in assay [3] (listed as leucine at P5), greater than 80%; in assay [3] (listed as leucine substitution at P5), “more than 80%”. Besides, in assay [3] (setting [10]), the IC50 was found to be 281 nM. Further, the “Relative Binding Average” value in assay [3] is reported as 0.155. In assay [6], the “CTL recognition / sensitizing targets for CTL lysis” value was “least efficient at sensitizing targets for CTL lysis”.

Turning to “Tat28-35 variant ----L-- (leucine at P5) (peptide)”, the % Binding reduction in assay [4] was 85%. In assay [5], this substance yielded a Relative Binding Average of 0.155.

Consider GDYKLVEI [Env_GI8], for which the “avidity of CTL response” value in assay [1] (ICS) was “low avidity”.

As for GLDKGLSSL [GL9], the “avidity of CTL response” value in assay [2] is on record as “high avidity”.

“Tat28-35 variant P------ (proline at P1) (peptide)” showed a % Binding reduction in assay [7] of 67%. Also, the Relative Binding Average in assay [5] is 0.43.

Consider “Tat28-35 variant ------Q (glutamine at P8) (peptide)”, for which, in assay [4], the % Binding reduction is greater than 99%. In addition, the Relative Binding Average in assay [5] came out at 0.003.

For “variant of the Tat STPESANL epitope with isoleucine at P2 [-I----]”, in assay [3], the “% Binding reduction” value was greater than 99% and the “Relative Binding Average” value was determined as 0.009. In assay [3] (setting [9]), this substance came in with an IC50 of 4610 nM.

“Tat28-35 variant -I---- (isoleucine at P2) (peptide)”: the % Binding reduction in assay [4] is greater than 99%. The substance further had a Relative Binding Average in assay [5] of 0.009.

In assay [4], “Tat28-35 variant ------P (proline at P8) (peptide)” yielded a % Binding reduction greater than 99%. Moreover, in assay [5], the Relative Binding Average amounted to 0.009.

Regarding “variant of the Tat STPESANL epitope with proline at P8 [------P]”, in assay [3], the “% Binding reduction” value is greater than 99% and the “Relative Binding Average” value was 0.009. In assay [3] (setting [9]), the concentration for half-maximal inhibition (IC50) was determined as 4570 nM.

On to “variant of the Tat STPESANL epitope with arginine at P8 [------R]”, for which, in assay [3], the “% Binding reduction” value was greater than 99% and the “Relative Binding Average” value turned out to be 0.003. In addition, in assay [3] (setting [9]), the IC50 worked out at 15100 nM.

With STPESANL, the EC50 was less than 0.5 nM in assay [2] (CTL lines generated in vitro, read-out: ½maximal IFN-γ production (peptide concentration)); 0.11 nM in assay [1] (epitope-specific PBMC, ICS); 0.05 to 0.1 nM in assay [8].

For “variant of the Tat STPESANL epitope with glutamine at P8 [------Q]”, in assay [3], the “% Binding reduction” value is listed as greater than 99% and the “Relative Binding Average” value is listed as 0.003. For the same substance, the IC50 in assay [3] (setting [10]) was 13200 nM.

With CTPYDINQM [Gag CM9], the EC50 in assay [1] is 8 nM; in assay [8], 1 to 10 nM and 1 to 40 nM.

Values taken from patent US20030198941A1, “Method for making an HIV vaccine” (priority 2000, published 2003).
